The source made the active and inactive calls. The rule behind the calls is not given here.
Columns and labels:
Homo sapiens [1] = species on record: Homo sapiens; assay: Inhibition of human DNA polymerase epsilon at 100 uM
[2] = biological target: T1, DNA polymerase eta (Homo sapiens) (UniProt Q9Y253); assay: Inhibition of human DNA polymerase eta at 100 uM
T1 sequence (whole entry): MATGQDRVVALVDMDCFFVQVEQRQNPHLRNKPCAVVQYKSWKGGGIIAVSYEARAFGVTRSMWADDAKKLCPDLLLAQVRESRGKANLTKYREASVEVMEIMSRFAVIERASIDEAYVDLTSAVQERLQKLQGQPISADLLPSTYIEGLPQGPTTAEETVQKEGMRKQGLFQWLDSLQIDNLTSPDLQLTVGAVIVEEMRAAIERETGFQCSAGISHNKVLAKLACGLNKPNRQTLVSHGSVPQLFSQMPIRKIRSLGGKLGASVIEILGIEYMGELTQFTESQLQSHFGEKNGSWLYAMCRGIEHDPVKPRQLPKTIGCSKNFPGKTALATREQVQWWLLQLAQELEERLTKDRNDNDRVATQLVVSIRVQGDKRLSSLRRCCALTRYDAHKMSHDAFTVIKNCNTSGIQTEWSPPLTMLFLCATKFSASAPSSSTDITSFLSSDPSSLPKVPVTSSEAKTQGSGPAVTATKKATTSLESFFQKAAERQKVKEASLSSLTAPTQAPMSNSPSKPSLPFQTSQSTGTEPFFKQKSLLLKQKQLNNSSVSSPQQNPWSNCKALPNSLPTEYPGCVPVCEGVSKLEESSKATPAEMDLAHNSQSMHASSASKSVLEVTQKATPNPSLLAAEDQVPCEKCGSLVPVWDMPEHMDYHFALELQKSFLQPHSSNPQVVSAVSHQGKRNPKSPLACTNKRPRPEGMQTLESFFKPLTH

[3] = biological target: Telomerase reverse transcriptase (Homo sapiens) (UniProt O14746); assay: Inhibition of human telomerase at 100 uM
[4] = biological target: DNA polymerase lambda (Homo sapiens) (UniProt Q9UGP5); assay: Inhibition of human DNA polymerase lambda at 100 uM
Thermus aquaticus = assay: Inhibition of Taq DNA polymerase at 100 uM
Homo sapiens [5] = species on record: Homo sapiens; assay: Inhibition of human DNA polymerase gamma at 100 uM
[6] = biological target: T2, DNA polymerase kappa (Homo sapiens) (UniProt Q9UBT6); assay: Inhibition of human DNA polymerase kappa at 100 uM
T2 sequence (whole entry): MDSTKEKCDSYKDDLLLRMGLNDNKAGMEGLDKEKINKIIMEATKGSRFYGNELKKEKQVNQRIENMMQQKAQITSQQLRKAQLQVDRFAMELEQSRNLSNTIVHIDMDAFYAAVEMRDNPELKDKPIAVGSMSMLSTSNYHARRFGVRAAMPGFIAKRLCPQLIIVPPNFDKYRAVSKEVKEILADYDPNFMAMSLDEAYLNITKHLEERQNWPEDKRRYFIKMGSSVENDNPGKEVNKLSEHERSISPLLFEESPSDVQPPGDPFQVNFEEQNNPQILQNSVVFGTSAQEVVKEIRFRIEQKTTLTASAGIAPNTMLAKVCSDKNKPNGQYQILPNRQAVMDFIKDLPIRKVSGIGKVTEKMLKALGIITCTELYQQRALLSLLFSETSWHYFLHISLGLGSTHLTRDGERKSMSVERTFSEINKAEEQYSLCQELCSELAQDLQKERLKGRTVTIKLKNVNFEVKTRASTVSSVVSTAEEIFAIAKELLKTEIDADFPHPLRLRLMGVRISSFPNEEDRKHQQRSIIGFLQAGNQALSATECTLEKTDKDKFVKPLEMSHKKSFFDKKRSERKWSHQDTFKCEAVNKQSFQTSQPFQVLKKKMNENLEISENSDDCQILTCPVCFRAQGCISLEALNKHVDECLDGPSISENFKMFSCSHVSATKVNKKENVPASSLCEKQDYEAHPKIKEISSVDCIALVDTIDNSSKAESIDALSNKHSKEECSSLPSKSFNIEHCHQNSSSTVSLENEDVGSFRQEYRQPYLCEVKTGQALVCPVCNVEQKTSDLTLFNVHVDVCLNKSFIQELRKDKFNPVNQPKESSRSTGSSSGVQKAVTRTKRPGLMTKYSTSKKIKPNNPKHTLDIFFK

Homo sapiens [7] = species on record: Homo sapiens; assay: Inhibition of human DNA polymerase delta at 100 uM
[8] = biological target: Polynucleotide kinase (Enterobacteria phage T4) (UniProt P06855); assay: Inhibition of Enterobacteria phage T4 Polynucleotide kinase at 100 uM; details: Tequatrovirus T4
Drosophila melanogaster [9] = assay: Inhibition of fruit fly DNA polymerase delta at 100 uM
Drosophila melanogaster [10] = assay: Inhibition of fruit fly DNA polymerase alpha at 100 uM
Escherichia phage T7 = assay: Inhibition of Enterobacteria phage T7 RNA polymerase at 100 uM
[11] = biological target: DNA nucleotidylexotransferase (Bos taurus) (UniProt P06526); assay: Inhibition of calf terminal deoxynucleotidyltransferase at 100 uM
[12] = biological target: Human immunodeficiency virus type 1 reverse transcriptase (Human immunodeficiency virus 1) (UniProt Q72547); assay: Inhibition of HIV-1 reverse transcriptase at 100 uM
[13] = biological target: DNA polymerase beta (Rattus norvegicus) (UniProt P06766); assay: Inhibition of rat DNA polymerase beta at 100 uM
[14] = biological target: T3, DNA polymerase iota (Mus musculus) (UniProt Q6R3M4); assay: Inhibition of mouse DNA polymerase iota
T3 sequence (whole entry): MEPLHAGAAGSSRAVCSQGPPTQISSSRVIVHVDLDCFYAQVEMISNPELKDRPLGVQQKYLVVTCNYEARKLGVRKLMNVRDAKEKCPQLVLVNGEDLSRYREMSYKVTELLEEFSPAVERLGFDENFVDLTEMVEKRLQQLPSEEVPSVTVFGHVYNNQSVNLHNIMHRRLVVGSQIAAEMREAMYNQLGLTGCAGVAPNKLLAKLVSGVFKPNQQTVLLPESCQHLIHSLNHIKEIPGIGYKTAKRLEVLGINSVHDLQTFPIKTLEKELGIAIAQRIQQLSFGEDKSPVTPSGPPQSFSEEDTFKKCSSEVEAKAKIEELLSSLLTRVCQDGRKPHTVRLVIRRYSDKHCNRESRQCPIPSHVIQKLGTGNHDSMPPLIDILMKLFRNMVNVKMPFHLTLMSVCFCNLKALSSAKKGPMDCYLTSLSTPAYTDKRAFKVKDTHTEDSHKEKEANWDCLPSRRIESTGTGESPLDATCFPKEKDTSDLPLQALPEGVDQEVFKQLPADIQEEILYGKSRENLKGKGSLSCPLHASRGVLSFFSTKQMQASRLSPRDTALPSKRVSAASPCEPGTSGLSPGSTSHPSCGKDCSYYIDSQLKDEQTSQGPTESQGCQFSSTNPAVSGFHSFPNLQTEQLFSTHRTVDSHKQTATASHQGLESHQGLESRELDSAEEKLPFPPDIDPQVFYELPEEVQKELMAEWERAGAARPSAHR

[15] = biological target: T1, DNA polymerase eta (Homo sapiens); assay: Inhibition of human DNA polymerase eta
[16] = biological target: T3, DNA polymerase iota (Mus musculus); assay: Inhibition of mouse DNA polymerase iota at 100 uM
Drosophila melanogaster [17] = assay: Inhibition of fruit fly DNA polymerase epsilon at 100 uM
[18] = biological target: Deoxyribonuclease-1 (Bos taurus) (UniProt P00639); assay: Inhibition of bovine deoxyribonuclease 1 at 100 uM
Bos taurus [19] = species on record: Bos taurus; assay: Inhibition of calf primase of DNA polymerase alpha at 100 uM
[20] = biological target: DNA topoisomerase 1 (Homo sapiens) (UniProt P11387); assay: Inhibition of human DNA topoisomerase 1 at 100 uM
[21] = biological target: T2, DNA polymerase kappa (Homo sapiens); assay: Inhibition of human DNA polymerase kappa
Bos taurus [22] = species on record: Bos taurus; assay: Inhibition of calf DNA polymerase alpha at 100 uM
Escherichia coli = assay: Inhibition of Escherichia coli DNA polymerase 1 Klenow fragment at 100 uM
Homo sapiens [23] = species on record: Homo sapiens; assay: Inhibition of human DNA topoisomerase 2 at 100 uM
[24] = biological target: DNA-directed DNA polymerase (Enterobacteria phage T4) (UniProt P04415); assay: Inhibition of Enterobacteria phage T4 DNA polymerase at 100 uM; details: Tequatrovirus T4
[25] = biological target: Inosine-5'-monophosphate dehydrogenase 2 (Mus musculus) (UniProt P24547); assay: Inhibition of mouse IMP dehydrogenase 2 at 100 uM
Oncorhynchus masou = assay: Inhibition of cherry salmon DNA polymerase delta at 100 uM
[26] = system: Brassica oleracea var. botrytis; assay: Inhibition of cauliflower DNA polymerase alpha at 100 uM
Oryza sativa = assay: Inhibition of rice DNA polymerase lambda at 100 uM

Chain of DNA nucleotidylexotransferase (Bos taurus) (P06526 whole entry): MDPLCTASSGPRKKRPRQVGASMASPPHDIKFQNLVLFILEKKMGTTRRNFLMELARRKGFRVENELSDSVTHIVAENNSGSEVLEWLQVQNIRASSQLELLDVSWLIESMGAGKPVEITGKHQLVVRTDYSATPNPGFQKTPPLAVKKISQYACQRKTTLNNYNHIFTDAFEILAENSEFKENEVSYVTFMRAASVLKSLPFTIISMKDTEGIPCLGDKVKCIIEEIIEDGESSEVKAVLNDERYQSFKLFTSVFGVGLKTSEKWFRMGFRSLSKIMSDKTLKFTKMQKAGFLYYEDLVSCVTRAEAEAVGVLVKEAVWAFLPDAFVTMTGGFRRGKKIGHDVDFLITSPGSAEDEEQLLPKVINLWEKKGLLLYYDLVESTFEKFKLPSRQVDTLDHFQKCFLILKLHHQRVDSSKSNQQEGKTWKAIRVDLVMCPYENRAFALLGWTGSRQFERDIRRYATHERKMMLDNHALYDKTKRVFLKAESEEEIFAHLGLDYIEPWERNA
Chain of Deoxyribonuclease-1 (Bos taurus) (P00639 whole entry): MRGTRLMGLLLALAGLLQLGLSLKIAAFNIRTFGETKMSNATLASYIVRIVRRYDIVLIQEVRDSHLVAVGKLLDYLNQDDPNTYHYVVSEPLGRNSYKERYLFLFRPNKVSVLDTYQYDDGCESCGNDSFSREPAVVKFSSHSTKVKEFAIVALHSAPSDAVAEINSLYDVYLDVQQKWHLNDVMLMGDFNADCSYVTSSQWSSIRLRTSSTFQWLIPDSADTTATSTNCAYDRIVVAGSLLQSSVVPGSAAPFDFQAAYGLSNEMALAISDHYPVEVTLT
Chain of Telomerase reverse transcriptase (Homo sapiens) (O14746 whole entry): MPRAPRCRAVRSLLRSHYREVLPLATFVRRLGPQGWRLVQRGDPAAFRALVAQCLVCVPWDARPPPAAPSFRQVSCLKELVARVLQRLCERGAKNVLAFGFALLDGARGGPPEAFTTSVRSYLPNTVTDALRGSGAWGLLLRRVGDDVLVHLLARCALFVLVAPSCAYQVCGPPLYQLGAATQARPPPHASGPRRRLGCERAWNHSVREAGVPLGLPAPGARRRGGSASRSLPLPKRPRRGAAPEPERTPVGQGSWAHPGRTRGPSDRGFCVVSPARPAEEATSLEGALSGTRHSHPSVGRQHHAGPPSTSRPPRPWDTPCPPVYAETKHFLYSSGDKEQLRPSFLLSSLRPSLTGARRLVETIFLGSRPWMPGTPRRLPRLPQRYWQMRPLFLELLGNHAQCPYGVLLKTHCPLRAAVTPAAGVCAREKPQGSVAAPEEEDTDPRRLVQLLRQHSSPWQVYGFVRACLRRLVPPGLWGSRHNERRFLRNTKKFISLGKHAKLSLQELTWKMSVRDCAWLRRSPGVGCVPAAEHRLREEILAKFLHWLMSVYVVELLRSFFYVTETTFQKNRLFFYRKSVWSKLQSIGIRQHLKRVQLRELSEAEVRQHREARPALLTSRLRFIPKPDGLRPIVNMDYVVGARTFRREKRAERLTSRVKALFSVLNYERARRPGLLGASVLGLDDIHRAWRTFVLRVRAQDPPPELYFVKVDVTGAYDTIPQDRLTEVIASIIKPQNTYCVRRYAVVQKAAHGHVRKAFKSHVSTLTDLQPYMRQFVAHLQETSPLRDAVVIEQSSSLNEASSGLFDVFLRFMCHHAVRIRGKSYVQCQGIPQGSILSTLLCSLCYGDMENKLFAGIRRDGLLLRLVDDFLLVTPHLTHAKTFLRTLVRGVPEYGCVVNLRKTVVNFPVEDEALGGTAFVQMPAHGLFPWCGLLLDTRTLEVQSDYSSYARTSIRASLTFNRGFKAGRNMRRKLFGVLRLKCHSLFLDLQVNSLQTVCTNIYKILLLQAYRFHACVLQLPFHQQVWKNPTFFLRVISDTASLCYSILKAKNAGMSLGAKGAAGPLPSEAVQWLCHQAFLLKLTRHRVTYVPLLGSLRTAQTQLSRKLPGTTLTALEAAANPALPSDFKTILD
Chain of DNA polymerase lambda (Homo sapiens) (Q9UGP5 whole entry): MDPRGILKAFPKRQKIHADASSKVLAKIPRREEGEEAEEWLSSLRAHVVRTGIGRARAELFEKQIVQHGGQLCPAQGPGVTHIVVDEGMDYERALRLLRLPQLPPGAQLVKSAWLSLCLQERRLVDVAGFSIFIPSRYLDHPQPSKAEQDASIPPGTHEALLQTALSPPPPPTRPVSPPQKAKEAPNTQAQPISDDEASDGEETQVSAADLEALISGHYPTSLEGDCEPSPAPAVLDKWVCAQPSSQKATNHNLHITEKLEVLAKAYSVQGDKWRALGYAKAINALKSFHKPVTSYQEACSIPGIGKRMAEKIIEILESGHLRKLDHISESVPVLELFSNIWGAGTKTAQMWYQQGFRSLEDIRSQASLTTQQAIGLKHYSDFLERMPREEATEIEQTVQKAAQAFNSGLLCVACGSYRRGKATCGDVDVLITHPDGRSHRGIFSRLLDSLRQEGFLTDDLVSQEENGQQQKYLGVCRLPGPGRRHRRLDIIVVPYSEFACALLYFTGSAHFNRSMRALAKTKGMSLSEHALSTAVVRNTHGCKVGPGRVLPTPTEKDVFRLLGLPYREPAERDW
Chain of DNA topoisomerase 1 (Homo sapiens) (P11387 whole entry): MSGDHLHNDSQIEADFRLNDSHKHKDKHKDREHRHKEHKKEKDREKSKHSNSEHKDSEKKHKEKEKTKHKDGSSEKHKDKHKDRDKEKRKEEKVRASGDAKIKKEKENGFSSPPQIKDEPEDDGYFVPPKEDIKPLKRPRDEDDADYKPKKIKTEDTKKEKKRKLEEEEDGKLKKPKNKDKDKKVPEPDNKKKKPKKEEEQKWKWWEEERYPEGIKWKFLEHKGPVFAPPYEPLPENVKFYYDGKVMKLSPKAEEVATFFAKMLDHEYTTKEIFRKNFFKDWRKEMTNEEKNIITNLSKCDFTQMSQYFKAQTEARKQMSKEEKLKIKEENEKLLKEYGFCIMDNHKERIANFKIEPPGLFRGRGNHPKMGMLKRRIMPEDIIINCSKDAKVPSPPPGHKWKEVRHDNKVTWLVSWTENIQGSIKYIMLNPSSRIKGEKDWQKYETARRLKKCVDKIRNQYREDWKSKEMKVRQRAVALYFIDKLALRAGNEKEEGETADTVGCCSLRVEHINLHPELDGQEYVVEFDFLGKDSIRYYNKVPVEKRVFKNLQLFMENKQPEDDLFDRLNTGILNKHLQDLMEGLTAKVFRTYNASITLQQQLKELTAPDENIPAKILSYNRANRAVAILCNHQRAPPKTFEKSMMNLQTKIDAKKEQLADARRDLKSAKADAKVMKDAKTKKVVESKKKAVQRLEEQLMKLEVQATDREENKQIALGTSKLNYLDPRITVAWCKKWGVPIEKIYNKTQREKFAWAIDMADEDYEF
Chain of DNA-directed DNA polymerase (Enterobacteria phage T4) (P04415 whole entry): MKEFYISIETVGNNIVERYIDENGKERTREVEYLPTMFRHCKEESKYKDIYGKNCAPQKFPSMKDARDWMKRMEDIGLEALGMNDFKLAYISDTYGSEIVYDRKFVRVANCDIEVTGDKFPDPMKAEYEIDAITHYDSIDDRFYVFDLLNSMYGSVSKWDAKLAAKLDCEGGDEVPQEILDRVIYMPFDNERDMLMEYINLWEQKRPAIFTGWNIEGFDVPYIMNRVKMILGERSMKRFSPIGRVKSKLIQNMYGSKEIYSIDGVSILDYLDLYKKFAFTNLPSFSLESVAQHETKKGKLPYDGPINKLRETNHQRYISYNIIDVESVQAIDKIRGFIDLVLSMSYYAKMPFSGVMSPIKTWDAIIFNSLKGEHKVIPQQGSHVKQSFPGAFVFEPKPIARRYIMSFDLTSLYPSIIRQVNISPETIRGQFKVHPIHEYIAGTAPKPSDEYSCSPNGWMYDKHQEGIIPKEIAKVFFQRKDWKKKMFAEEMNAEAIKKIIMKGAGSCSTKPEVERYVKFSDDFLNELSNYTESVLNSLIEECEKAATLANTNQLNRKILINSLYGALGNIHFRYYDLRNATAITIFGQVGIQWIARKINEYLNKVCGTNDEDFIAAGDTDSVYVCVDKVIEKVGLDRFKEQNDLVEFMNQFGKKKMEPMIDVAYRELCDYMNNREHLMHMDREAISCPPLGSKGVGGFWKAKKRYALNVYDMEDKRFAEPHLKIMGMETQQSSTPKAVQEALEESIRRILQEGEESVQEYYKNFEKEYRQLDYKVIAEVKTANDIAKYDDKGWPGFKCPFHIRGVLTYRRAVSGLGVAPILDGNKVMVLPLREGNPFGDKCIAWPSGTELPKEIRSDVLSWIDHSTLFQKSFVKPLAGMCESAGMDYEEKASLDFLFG
Chain of Inosine-5'-monophosphate dehydrogenase 2 (Mus musculus) (P24547 whole entry, looked up): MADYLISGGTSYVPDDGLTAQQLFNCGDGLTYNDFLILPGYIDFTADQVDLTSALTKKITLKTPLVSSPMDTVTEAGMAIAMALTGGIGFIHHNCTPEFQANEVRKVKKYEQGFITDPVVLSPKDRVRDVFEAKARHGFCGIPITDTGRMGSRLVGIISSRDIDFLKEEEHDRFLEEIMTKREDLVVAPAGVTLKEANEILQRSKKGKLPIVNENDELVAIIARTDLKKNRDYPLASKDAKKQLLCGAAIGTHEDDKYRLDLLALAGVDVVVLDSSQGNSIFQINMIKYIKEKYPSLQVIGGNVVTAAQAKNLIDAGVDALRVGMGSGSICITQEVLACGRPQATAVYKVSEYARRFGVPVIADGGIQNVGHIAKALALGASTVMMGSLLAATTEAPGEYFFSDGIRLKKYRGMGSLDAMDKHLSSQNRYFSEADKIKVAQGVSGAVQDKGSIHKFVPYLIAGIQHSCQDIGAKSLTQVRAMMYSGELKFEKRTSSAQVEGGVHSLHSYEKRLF
Chain of Polynucleotide kinase (Enterobacteria phage T4) (P06855 whole entry): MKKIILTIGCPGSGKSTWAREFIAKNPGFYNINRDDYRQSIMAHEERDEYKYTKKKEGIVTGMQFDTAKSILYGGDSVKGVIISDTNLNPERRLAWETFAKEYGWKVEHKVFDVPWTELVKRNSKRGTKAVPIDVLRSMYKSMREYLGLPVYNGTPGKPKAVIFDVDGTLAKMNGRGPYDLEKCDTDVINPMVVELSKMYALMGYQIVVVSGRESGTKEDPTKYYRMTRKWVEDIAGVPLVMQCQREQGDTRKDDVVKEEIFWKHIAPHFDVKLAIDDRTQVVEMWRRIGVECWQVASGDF

## COC1=C(C(=O)CC(C)O)C(=O)C(C)(/C=C/C=C/C(C)O)O1 (stereo unspecified)
Homo sapiens [1]
  Activity: inactive
[2]
  Activity: Active
[3]
  Activity: inactive
[4]
  Activity: inactive
Thermus aquaticus
  Activity: inactive
Homo sapiens [5]
  Activity: inactive
[6]
  Activity: Active
Homo sapiens [7]
  Activity: inactive
[8]
  Activity: inactive
Drosophila melanogaster [9]
  Activity: inactive
Drosophila melanogaster [10]
  Activity: inactive
Escherichia phage T7
  Activity: inactive
[11]
  Activity: inactive
[12]
  Activity: inactive
[13]
  Activity: inactive
[14]
  Activity: Dose-dependent effect
[15]
  Activity: Dose-dependent effect
[16]
  Activity: Active
Drosophila melanogaster [17]
  Activity: inactive
[18]
  Activity: inactive
Bos taurus [19]
  Activity: inactive
[20]
  Activity: inactive
[21]
  Activity: Dose-dependent effect
Bos taurus [22]
  Activity: inactive
Escherichia coli
  Activity: inactive
Homo sapiens [23]
  Activity: inactive
[24]
  Activity: inactive
[25]
  Activity: inactive
Oncorhynchus masou
  Activity: inactive
[26]
  Activity: inactive

## C/C=C/C(=O)C1=C(OC)OC(C)(/C=C/C=C/C(C)O)C1=O (stereo unspecified)
Homo sapiens [1]
  Activity: inactive
[2]
  Activity: Active
[3]
  Activity: inactive
[4]
  Activity: inactive
Thermus aquaticus
  Activity: inactive
Homo sapiens [5]
  Activity: inactive
[6]
  Activity: Active
Homo sapiens [7]
  Activity: inactive
[8]
  Activity: inactive
Drosophila melanogaster [9]
  Activity: inactive
Drosophila melanogaster [10]
  Activity: inactive
Escherichia phage T7
  Activity: inactive
[11]
  Activity: inactive
[12]
  Activity: inactive
[13]
  Activity: inactive
[14]
  Activity: Dose-dependent effect
[15]
  Activity: Dose-dependent effect
[16]
  Activity: Active
Drosophila melanogaster [17]
  Activity: inactive
[18]
  Activity: inactive
Bos taurus [19]
  Activity: inactive
[20]
  Activity: inactive
[21]
  Activity: Dose-dependent effect
Bos taurus [22]
  Activity: inactive
Escherichia coli
  Activity: inactive
Homo sapiens [23]
  Activity: inactive
[24]
  Activity: inactive
[25]
  Activity: inactive
Oncorhynchus masou
  Activity: inactive
[26]
  Activity: inactive
Oryza sativa
  Activity: inactive

Source: ChEMBL document CHEMBL1152764, “Penicilliols A and B, novel inhibitors specific to mammalian Y-family DNA polymerases” (Bioorg Med Chem, 2009)
